Measurements from publication PMC4627800, “Allelic Variation of Cytochrome P450s Drives Resistance to Bednet Insecticides in a Major Malaria Vector” (PLoS Genetics, 2015).
Where two headings read alike, the source gives them in different places.

How the values were obtained:
UGANCYP6P9b [1] = target: T1, UGANCYP6P9b (Anopheles funestus, UniProt A0A0S1S7Y0); test: Fluorogenic probe O-dealkylation, initial testing; type: biochemical; conditions: UGANCYP6P9b vs UGANCYP6P9a; 1μM probe
Experimental: Four probes: 7-ethoxyresurofin (7-ER), 7-ethoxy-4-trifluoromethylcoumarin (7-EFC), 7-methoxy-4-trifluoromethylcoumarin (MFC) and diethoxyfluorescein (DEF) were initially tested with the various recombinant CYP6P9a and CYP6P9b proteins. In a total volume of 225μl containing ~10pmol P450, buffered with 50mM potassium phosphate buffer (KPi at pH 7.4 with 5mM MgCl2), 1μM probe substrate was added. Membranes were activated for 5 minutes at 37°C in fluorescence spectrophotometer Infinite M200 (TECAN) before 25μl NADPH regeneration buffer (1mM glucose-6-phosphate (G6P), 0.25mM MgCl2, 0.1mM NADP and 1U/ml glucose-6-phosphate dehydrogenase (G6PDH) prepared in KPi pH 7.4) was added. All reactions were conducted in three replicates with negative control (–NADPH) devoid of the regeneration buffer. […]. Results were analysed using Magellan v6.2 software.

BENCYP6P9a [2] = target: T2, BENCYP6P9a (Anopheles funestus, UniProt A0A0S1RZ75); test: Pyrethroid depletion (metabolism) assay with recombinant enzyme; type: biochemical; conditions: 20μM insecticide, 1 hour, vs -NADPH
Experimental: (§5) Membrane expressing recombinant CYP6P9a/-b and AgCPR, and reconstituted cytochrome b5 were added to the side of the tube and pre-incubated for 5 minutes at 30°C, with shaking at 1,200 rpm to activate the membrane. 20μM of test insecticide was then added into the final volume of 0.2ml (~2.5% v/v methanol), and reaction started by vortexing at 1,200 rpm and 30°C for 1 hour. Reactions were quenched with 0.1ml ice-cold methanol and incubated for 5 more minutes. Tubes were then centrifuged at 16,000 rpm and 4°C for 15 minutes, and 150μl of supernatant transferred into HPLC vials for analysis. Reactions were carried out in triplicates with experimental samples (+NADPH) and negative controls (-NADPH). 100μl of sample was loaded onto an isocratic mobile phase (90:10 v/v methanol to water) with a flow rate of 1ml/min, monitoring wavelength of 226nm and peaks separated with a 250mm C18 column (Acclaim 120, Dionex) on Agilent 1260 Infinity at 23°C. Enzyme activity was calculated as percentage depletion (the difference in the amount of insecticide(s) remaining in the +NADPH tubes compared with the–NADPH) and a t-test used for statistical analysis.

MALCYP6P9a = MALCYP6P9a (Anopheles funestus, UniProt B5AII6); test: as above; type: biochemical; conditions: 20μM insecticide, 1 hour, vs -NADPH
Experimental: as §5

FANGCYP6P9b [3] = target: T3, FANGCYP6P9b (Anopheles funestus, UniProt A0A0S1RZ61); test: as above; type: biochemical; conditions: 20μM insecticide, 1 hour, vs -NADPH
UGANCYP6P9b [4] = target: T1, UGANCYP6P9b; test: as above; type: biochemical; conditions: 20μM insecticide, 1 hour, vs -NADPH
UGANCYP6P9a = UGANCYP6P9a (Anopheles funestus, UniProt B5AII6); test: as above; type: biochemical; conditions: 20μM insecticide, 1 hour, vs -NADPH
Experimental: as §5

FANGCYP6P9a [5] = target: T4, FANGCYP6P9a (Anopheles funestus, UniProt K7Z0P3); test: as above; type: biochemical; conditions: 20μM insecticide, 1 hour, vs -NADPH
Experimental: as §5

BENCYP6P9b [6] = target: T5, BENCYP6P9b (Anopheles funestus, UniProt A0A0S1S7Y0); test: as above; type: biochemical; conditions: 20μM insecticide, 1 hour, vs -NADPH
Experimental: To establish whether allelic variation in CYP6P9a and CYP6P9b impact their metabolic activities toward insecticides, pyrethroids were screened with the recombinant enzymes from these genes. […] Membrane expressing recombinant CYP6P9a/-b and AgCPR, and reconstituted cytochrome b5 were added to the side of the tube and pre-incubated for 5 minutes at 30°C, with shaking at 1,200 rpm to activate the membrane. 20μM of test insecticide was then added into the final volume of 0.2ml (~2.5% v/v methanol), and reaction started by vortexing at 1,200 rpm and 30°C for 1 hour. Reactions were quenched with 0.1ml ice-cold methanol and incubated for 5 more minutes. Tubes were then centrifuged at 16,000 rpm and 4°C for 15 minutes, and 150μl of supernatant transferred into HPLC vials for analysis. Reactions were carried out in triplicates with experimental samples (+NADPH) and negative controls (-NADPH). 100μl of sample was loaded onto an isocratic mobile phase (90:10 v/v methanol to water) with a flow rate of 1ml/min, monitoring wavelength of 226nm and peaks separated with a 250mm C18 column (Acclaim 120, Dionex) on Agilent 1260 Infinity at 23°C. Enzyme activity was calculated as percentage depletion (the difference in the amount of insecticide(s) remaining in the +NADPH tubes compared with the–NADPH) and a t-test used for statistical analysis.

MALCYP6P9b [7] = target: T6, MALCYP6P9b (Anopheles funestus, UniProt B5AII7); test: as above; type: biochemical; conditions: 20μM insecticide, 1 hour, vs -NADPH
Experimental: as §5

CYP1A2 Glu^318Asp = test system: CYP1A2 Glu^318Asp; design: method as in PMID 7910007; conditions: human CYP1A2 ref [37]; cited from earlier work
UGANCYP6P9b [8] = target: T1, UGANCYP6P9b; test: Inhibition of DEF dealkylation by insecticides (IC50); type: biochemical; conditions: compared with averagely 10μM for the other proteins
Experimental: (§1) To further assess differences in the degree of binding of the various recombinant proteins to insecticides from different classes, inhibition assay was conducted with DEF and ten insecticides (inhibitors). The potent P450s inhibitor miconazole was utilised as a positive control inhibitor. IC50 determination was conducted as described in previous studies. […]. The 96 well-plate was pre-incubated for 5 minutes at 37°C and then 25μl regeneration buffer (7.8mg glucose-6-phosphate (G6P), 0.25mM MgCl2, 1.7mg NADP, 6U/ml glucose-6-phosphate dehydrogenase and 2% w/v NaHCO3) incorporated. Fluorescence was monitored for 21 cycles at interval of 1 minute with shaking at every step. Results were analysed using Magellan v6.2 software and inhibition at each inhibitor concentration and incubation time calculated as residual control activity towards DEF.

CYP6P9a/CYP6P9b = test: in vitro; type: biochemical, Anopheles funestus; conditions: inhibition of DEF dealkylation; MALCYP6P9a, BENCYP6P9a, MALCYP6P9b, UGANCYP6P9b; DDT value for all proteins excepting UGANCYP6P9b
Experimental: as §1

[9] = test system: CYP6P9a/CYP6P9b (MALCYP6P9a, BENCYP6P9a, MALCYP6P9b, UGANCYP6P9b); test: in vitro; type: biochemical, Anopheles funestus; conditions: Anopheles funestus, pH 7.4, inhibition of DEF dealkylation, DDT value for all proteins excepting UGANCYP6P9b
Experimental: as §1

CYP6Z8 = test system: CYP6Z8; design: method as in ref [8] (S1 Text); conditions: cited from earlier work; for Kcat: Ae. aegypti CYP6Z8 ref [8] (S1 Text)
CYP6Z2 = conditions: cited from earlier work
FANGCYP6P9b [10] = target: T3, FANGCYP6P9b
Experimental: (§2) Reactions were performed in triplicates both for +NADPH (experimental tubes) and–NADPH (negative control). K m and V max were established from the plot of substrate concentrations against the initial velocities and fitting of the data to the Michaelis-Menten module using the least squares non-linear regression, as described in the GraphPad Prism 6.03 Software (GraphPad Inc., La Jolla, CA, USA).

FANGCYP6P9a [11] = target: T4, FANGCYP6P9a
Experimental: as §2

[12] = test system: transgenic flies over-expressing FANGCYP6P9b; conditions: 0.15% deltamethrin paper
Experimental: (§3) Primers used for this PCR are given in S8 Table. PCR conditions, cloning techniques, construction of transgenic flies and expression of candidate genes was conducted as described in previous studies, with more details provided in S1 Text. For control group, flies with the same background as the UAS transgenic lines but devoid of the UAS construct with the candidate gene were crossed with the driver Actin5C-GAL4 line to generate Actin5C-GAL4-null flies.
(§4) These papers were then rolled and introduced into 45 cc plastic vials. The vials were then plugged with cotton wool soaked in 5% sucrose. 20–25 (2–4 days old, post-eclosion F1 females) were selected for the bioassays and introduced into the vials. Mortality plus knockdown was scored after 1 hr, 2 hrs, 3 hrs, 6 hrs, 12 hrs and 24 hrs post-exposure to the discriminating dose of the insecticides.

[13] = test system: transgenic flies over-expressing MALCYP6P9a; conditions: 0.15% deltamethrin paper, 3 hrs
Experimental: as §3, §4

[14] = test system: transgenic flies over-expressing MALCYP6P9b; conditions: 0.15% deltamethrin paper
Experimental: as §3, §4

[15] = test system: transgenic flies over-expressing FANGCYP6P9a; conditions: 0.15% deltamethrin paper, 3 hrs
Experimental: as §3, §4

CYP6M2 = test system: CYP6M2; design: method as in ref [5] (S1 Text); conditions: An. gambiae CYP6M2 ref [5] (S1 Text); cited from earlier work
MALCYP6P9b [16] = target: T6, MALCYP6P9b; test: Steady-state kinetics of pyrethroid metabolism; type: biochemical
Experimental: as §2

UGANCYP6P9b [17] = target: T1, UGANCYP6P9b; test: Steady-state kinetics of pyrethroid metabolism; type: biochemical
Experimental: as §2

BENCYP6P9b [18] = target: T5, BENCYP6P9b; test: Steady-state kinetics of pyrethroid metabolism; type: biochemical
Experimental: as §2

BENCYP6P9a [19] = target: T2, BENCYP6P9a; test: Steady-state kinetics of pyrethroid metabolism; type: biochemical
Experimental: as §2

CCOc1ccc2c(C(F)(F)F)cc(=O)oc2c1 [7-EFC, 7-ethoxy-4-trifluoromethylcoumarin]
O-dealkylation activity, fold of UGANCYP6P9a (UGANCYP6P9b [1]): 17.9 fold

Cc1c(COC(=O)[C@@H]2[C@H](/C=C(\Cl)C(F)(F)F)C2(C)C)cccc1-c1ccccc1 (racemic) [bifenthrin]
Percentage depletion (BENCYP6P9a [2]): 51.02±0.75 % | Percentage depletion (MALCYP6P9a): 60.48±2.65 % | Percentage depletion (FANGCYP6P9b [3]): 22.38±5.08% | Percentage depletion (UGANCYP6P9b [4]): 88.8±1.61 % | Percentage depletion (UGANCYP6P9a): 50.31±3.8 % | Percentage depletion (FANGCYP6P9a [5]): 16.6±5.41% | Percentage depletion (BENCYP6P9b [6]): 89.19±1.01 % | Percentage depletion (MALCYP6P9b [7]): more than 80% | Percentage depletion (MALCYP6P9b [7]; listed as Bifenthrin): 81.6±0.25 %

CCOc1ccc2ccc(=O)oc2c1 [7-ethoxycoumarin]
increase of Kcat of O-dealkylation by Glu^318Asp substitution (CYP1A2 Glu^318Asp): 13 fold

Clc1ccc(C(c2ccc(Cl)cc2)C(Cl)(Cl)Cl)cc1 [DDT]
IC50 (UGANCYP6P9b [8]): much higher value | IC50 (CYP6P9a/CYP6P9b): ~10 µM

CNC(=O)Oc1cccc2c1OC(C)(C)O2 [bendiocarb]
IC50 [9]: > 25 µM

CCOc1ccc2nc3ccc(=O)cc-3oc2c1 [ethoxyresorufin]
Kcat (CYP6Z8): 0.0198 s⁻¹

CC1(C)[C@H](C(=O)O[C@H](C#N)c2cccc(Oc3ccccc3)c2)[C@@H]1/C=C(\Cl)C(F)(F)F (racemic) [λ-cyhalothrin]
Percentage depletion (BENCYP6P9a [2]): 52.45±1.74 % | Percentage depletion (MALCYP6P9a): 75.41±1.72% | Percentage depletion (FANGCYP6P9b [3]): 15.49±3.13% | Percentage depletion (UGANCYP6P9b [4]): 78.76±1.31 % | Percentage depletion (UGANCYP6P9a): 47.74±1.5% | Percentage depletion (FANGCYP6P9a [5]): 15.46±4.43% | Percentage depletion (BENCYP6P9b [6]): 49.35±4.41 %

O=c1ccc2nc3ccc(OCc4ccccc4)cc3oc-2c1 [benzyloxyresorufin]
Km (CYP6Z2; An. gambiae CYP6Z2-mediated de-benzylation ref [7] (S1 Text)): ~0.13 µM | Kcat (CYP6Z2; An. gambiae CYP6Z2 ref [7] (S1 Text)): ~ 1.5 min^-1 | Kcat (CYP6Z8): 0.00162 s⁻¹ | Km (CYP6Z8; Aedes aegypti CYP6Z8-mediated de-benzylation ref [8] (S1 Text)): ~0.13 µM

CC1(C)[C@H](C(=O)O[C@H](C#N)c2cccc(Oc3ccccc3)c2)[C@@H]1C=C(Br)Br [deltamethrin]
Percentage depletion (BENCYP6P9a [2]): 59.54±5.11 % | Percentage depletion (MALCYP6P9a): 68.38±1.83 % | Kcat (FANGCYP6P9b [10]): 0.082 ± 0.0137 s⁻¹ | Km (FANGCYP6P9b [10]): 19.5 ± 5.53 µM | Kcat (FANGCYP6P9a [11]): 0.0812 ± 0.0343 s⁻¹ | Percentage depletion (FANGCYP6P9b [3]): 6.2±1.5% | mortality ([12]; 1 hr): 20% | mortality ([12]; 2 hrs): 53% | mortality ([12]; 3 hrs): 62% | mortality ([12]; 6 hrs): 70% | mortality ([12]; 12 hrs): 81% | mortality ([12]; 24 hrs): 93% | mortality [13]: < 30% | mortality ([14]; 1 hr): 1.5% | mortality ([14]; 2 hrs): 7.5% | mortality ([14]; 3 hrs): 12.5% | mortality ([14]; 6 hrs): 16% | mortality ([14]; 12 hrs): 21% | mortality ([14]; 24 hrs): 41% | mortality [15]: 52% | Percentage depletion (UGANCYP6P9b [4]): 62.53±4.04 % | Percentage depletion (UGANCYP6P9a): 57.9±2.74 % | Km (CYP6M2): 2 µM | Percentage depletion (FANGCYP6P9a [5]): 18.11±2.15% | Percentage depletion (BENCYP6P9b [6]): 62.03±1.14 % | Percentage depletion (MALCYP6P9b [7]): more than 80% | Percentage depletion (MALCYP6P9b [7]; listed as Deltamethrin): 81.69±2.27 % | Kcat (MALCYP6P9b [16]): 12.09±1.44^b min^-1 | Km (MALCYP6P9b [16]): 9.9 ± 1.65 µM | Kcat (UGANCYP6P9b [17]): 10.44±4.00^b min^-1 | Kcat (BENCYP6P9b [18]): 13.63±5.40^b min^-1 | Kcat (BENCYP6P9a [19]): 8.78±2.62^a min^-1

CCOc1ccc(C(C)(C)COCc2cccc(Oc3ccccc3)c2)cc1 [etofenprox]
Percentage depletion (BENCYP6P9a [2]): 41.22±1.54 % | Percentage depletion (MALCYP6P9a): 46.04±1.26 % | Percentage depletion (FANGCYP6P9b [3]): 16.88±3.06% | Percentage depletion (UGANCYP6P9b [4]): 57.91±1.55 % | Percentage depletion (UGANCYP6P9a): 42.55±1.03 % | Percentage depletion (FANGCYP6P9a [5]): 7.28±1.53% | Percentage depletion (BENCYP6P9b [6]): 37.15±4.15 % | Percentage depletion (MALCYP6P9b [7]): 71.59±1.42 %

CNC(=O)Oc1ccccc1OC(C)C [propoxur]
IC50 [9]: > 25 µM
